One test has as its system P. aeruginosa ATCC 9027. The procedure:
(§1) The minimal inhibitory concentrations (MICs) for bacteria and fungi were determined by the broth microdilution method according to the Clinical and Laboratory Standards Institute (CLSI) protocol (Clinical and Laboratory Standards Institute (CLSI) [2002], [2012]). For this purpose, the initial inoculums of bacteria (5 × 10^5 CFU/mL) in Mueller–Hinton Broth (Biocorp, Warsaw, Poland) were exposed to the ranging concentrations of compounds (0.125–256 µg/mL) and incubated for 18 h at 37 °C. In case of fungi, the initial inoculums of 2 × 10^3 CFU/mL in RPMI-1640 (Sigma-Aldrich, Steinheim, Germany) were exposed to the ranging concentrations of compounds (0.5–256 µg/mL) and incubated for 24 h at 37 °C. The experiments were conducted on 96-well microtiter plates, with the final volume of 100 µL. Cell densities were adjusted spectrophotometrically (Multiskan™ GO Microplate Spectrophotometer, Thermo Scientific) at the wavelengths of 600 nm for bacteria and 530 nm for fungi. The MIC was taken as the lowest drug concentration at which a noticeable growth of microorganisms was inhibited. Reference strains of bacteria: Escherichia coli ATCC 25922, E. coli ATCC 23506, Enterococcus faecalis PCM 2673, Klebsiella pneumoniae ATCC 700603, Pseudomonas aeruginosa ATCC 9027, Staphylococcus aureus ATCC 25923, S. aureus 9144, Streptococcus pneumoniae ATCC 49619, and fungi: Aspergillus niger ATCC 16404, Candida albicans ATCC 10231, and C. glabrata ATCC 15126 were obtained from Polish Collection of Microorganisms (PCM, Polish Academy of Sciences, Wroclaw, Poland) and from American Type Culture Collection (ATCC). All experiments were conducted in triplicate.

The next test has as its system C. albicans ATCC 10231. The procedure:
as §1

The next test has as its system E. coli ATCC 25922. How it is done: as §1
For another test, the system named is S. aureus ATCC 9144. How it is done: as §1
Another test deals with S. pneumoniae ATCC 49619. The procedure: as §1
Another test relates to A. niger ATCC 16404. How it is done:
as §1

Another test concerns C. glabrata ATCC 15126. The procedure:
as §1

A further test relates to S. aureus ATCC 25923. The procedure: as §1
Test [1] relates to K. pneumoniae ATCC 700603. The procedure:
as §1

Another test concerns E. faecalis PCM 2673. How it is done:
as §1

Another test relates to E. coli ATCC 23506. How it is done:
as §1

Setting [2] is: broth microdilution (CLSI), 5 × 10^5 CFU/mL in Mueller–Hinton Broth, 0.125–256 µg/mL, 18 h at 37 °C, triplicate.
[3] abbreviates: broth microdilution (CLSI), 2 × 10^3 CFU/mL in RPMI-1640, 0.5–256 µg/mL, 24 h at 37 °C, triplicate.

These results are taken from paper PMC5602100, “Retro analog concept: comparative study on physico-chemical and biological properties of selected antimicrobial peptides” (Amino Acids, 2017).

Like-named read-outs stand apart in the source and are kept apart here. Ends that are not written are not given here.

On to FLPLIGRVLSGIL-NH2 [temporin A], for which the “MIC, P. aeruginosa ATCC 9027” value against P. aeruginosa ATCC 9027 (ATCC 9027, 18 h) is greater than 256 µg/mL. For the same substance, the “MIC, C. albicans ATCC 10231” value against C. albicans ATCC 10231 (ATCC 10231, 24 h) amounted to 256 µg/mL. The “MIC, E. coli ATCC 25922” value with E. coli ATCC 25922 (ATCC 25922, 18 h) is 256 µg/mL. In addition, the “MIC, S. aureus ATCC 9144” value in the test on S. aureus ATCC 9144 (ATCC 9144, 18 h) was 8 µg/mL. Further, the “MIC, S. pneumoniae ATCC 49619” value against S. pneumoniae ATCC 49619 (ATCC 49619, 18 h) is greater than 256 µg/mL. Also, the “MIC, A. niger ATCC 16404” value in the test on A. niger ATCC 16404 (ATCC 16404, 24 h) came to 256 µg/mL. Also, the “MIC, C. glabrata ATCC 15126” value against C. glabrata ATCC 15126 (ATCC 15126, 24 h) is listed as greater than 256 µg/mL. The “MIC, S. aureus ATCC 25923” value in the test with S. aureus ATCC 25923 (ATCC 25923, 18 h) is 4 µg/mL. Moreover, the “MIC, K. pneumoniae ATCC 700603” value in [1] (ATCC 700603, 18 h) turned out to be 128 µg/mL. For the same substance, the “MIC, E. faecalis PCM 2673” value in the test with E. faecalis PCM 2673 (PCM 2673, 18 h) came to 64 µg/mL. In addition, the “MIC, E. coli ATCC 23506” value with E. coli ATCC 23506 (ATCC 23506, 18 h) is on record as greater than 256 µg/mL.

For FSEAIKKIIDFLG-NH2 [r-aurein 1.2], the “MIC, P. aeruginosa ATCC 9027” value against P. aeruginosa ATCC 9027 (ATCC 9027, 18 h) is greater than 256 µg/mL. For the same substance, the “MIC, C. albicans ATCC 10231” value with C. albicans ATCC 10231 (ATCC 10231, 24 h) is greater than 256 µg/mL. Besides, the “MIC, E. coli ATCC 25922” value in the test on E. coli ATCC 25922 (ATCC 25922, 18 h) is 256 µg/mL. Moreover, the “MIC, S. aureus ATCC 9144” value in the test with S. aureus ATCC 9144 (ATCC 9144, 18 h) was greater than 256 µg/mL. In addition, the “MIC, S. pneumoniae ATCC 49619” value against S. pneumoniae ATCC 49619 (ATCC 49619, 18 h) turned out to be 256 µg/mL. Besides, the “MIC, A. niger ATCC 16404” value with A. niger ATCC 16404 (ATCC 16404, 24 h) is reported as greater than 256 µg/mL. Moreover, the “MIC, C. glabrata ATCC 15126” value with C. glabrata ATCC 15126 (ATCC 15126, 24 h) is greater than 256 µg/mL. For the same substance, in the test with S. aureus ATCC 25923 (ATCC 25923, 18 h), the “MIC, S. aureus ATCC 25923” value is recorded as greater than 256 µg/mL. Further, the “MIC, K. pneumoniae ATCC 700603” value in [1] (ATCC 700603, 18 h) amounted to 128 µg/mL. Further, the “MIC, E. faecalis PCM 2673” value in the test with E. faecalis PCM 2673 (PCM 2673, 18 h) was 256 µg/mL. In addition, the “MIC, E. coli ATCC 23506” value with E. coli ATCC 23506 (ATCC 23506, 18 h) was 256 µg/mL.

For KWKLFKKIGAVLKVL-NH2 [CAMEL], the “MIC, P. aeruginosa ATCC 9027” value against P. aeruginosa ATCC 9027 (setting [2]) is 2 µg/mL. Moreover, the “MIC, C. albicans ATCC 10231” value with C. albicans ATCC 10231 (setting [3]) was found to be 32 µg/mL. Further, the “MIC, E. coli ATCC 25922” value in the test on E. coli ATCC 25922 (setting [2]) was determined as 2 µg/mL. In the test on S. aureus ATCC 9144 (setting [2]), the “MIC, S. aureus ATCC 9144” value was 4 µg/mL. Moreover, in the test on S. pneumoniae ATCC 49619 (setting [2]), the “MIC, S. pneumoniae ATCC 49619” value amounted to 0.5 µg/mL. The “MIC, A. niger ATCC 16404” value in the test on A. niger ATCC 16404 (setting [3]) stood at 16 µg/mL. Besides, in the test with C. glabrata ATCC 15126 (setting [3]), the “MIC, C. glabrata ATCC 15126” value is given as 64 µg/mL. Besides, the “MIC, S. aureus ATCC 25923” value against S. aureus ATCC 25923 (setting [2]) is listed as 4 µg/mL. Further, in test [1] (setting [2]), the “MIC, K. pneumoniae ATCC 700603” value is on record as 0.125 µg/mL. The “MIC, E. faecalis PCM 2673” value against E. faecalis PCM 2673 (setting [2]) is 8 µg/mL. In addition, the “MIC, E. coli ATCC 23506” value against E. coli ATCC 23506 (setting [2]) was 1 µg/mL.

Regarding LIGSLVRGILPLF-NH2 [r-temporin A], the “MIC, P. aeruginosa ATCC 9027” value against P. aeruginosa ATCC 9027 (ATCC 9027, 18 h) was found to be 256 µg/mL. Also, in the test with C. albicans ATCC 10231 (ATCC 10231, 24 h), the “MIC, C. albicans ATCC 10231” value turned out to be 256 µg/mL. Moreover, the “MIC, E. coli ATCC 25922” value in the test with E. coli ATCC 25922 (ATCC 25922, 18 h) was found to be 256 µg/mL. Also, the “MIC, S. aureus ATCC 9144” value against S. aureus ATCC 9144 (ATCC 9144, 18 h) is reported as 64 µg/mL. The “MIC, S. pneumoniae ATCC 49619” value against S. pneumoniae ATCC 49619 (ATCC 49619, 18 h) was greater than 256 µg/mL. The “MIC, A. niger ATCC 16404” value against A. niger ATCC 16404 (ATCC 16404, 24 h) is recorded as 256 µg/mL. Also, the “MIC, C. glabrata ATCC 15126” value against C. glabrata ATCC 15126 (ATCC 15126, 24 h) is reported as greater than 256 µg/mL. In addition, the “MIC, S. aureus ATCC 25923” value against S. aureus ATCC 25923 (ATCC 25923, 18 h) is recorded as 64 µg/mL. Also, the “MIC, K. pneumoniae ATCC 700603” value in test [1] (ATCC 700603, 18 h) stood at 128 µg/mL. In the test with E. faecalis PCM 2673 (PCM 2673, 18 h), the “MIC, E. faecalis PCM 2673” value turned out to be 256 µg/mL. Besides, the “MIC, E. coli ATCC 23506” value in the test with E. coli ATCC 23506 (ATCC 23506, 18 h) came out at 256 µg/mL.

As for GLFDVIKKVASVIGGL-NH2 [citropin 1.1], the “MIC, P. aeruginosa ATCC 9027” value against P. aeruginosa ATCC 9027 (ATCC 9027, 18 h) is listed as 128 µg/mL. Besides, the “MIC, C. albicans ATCC 10231” value against C. albicans ATCC 10231 (ATCC 10231, 24 h) was found to be 128 µg/mL. Also, the “MIC, E. coli ATCC 25922” value against E. coli ATCC 25922 (ATCC 25922, 18 h) was 32 µg/mL. In the test with S. aureus ATCC 9144 (ATCC 9144, 18 h), the “MIC, S. aureus ATCC 9144” value amounted to 16 µg/mL. In the test on S. pneumoniae ATCC 49619 (ATCC 49619, 18 h), the “MIC, S. pneumoniae ATCC 49619” value is 32 µg/mL. Moreover, in the test with A. niger ATCC 16404 (ATCC 16404, 24 h), the “MIC, A. niger ATCC 16404” value is reported as 64 µg/mL. In the test on C. glabrata ATCC 15126 (ATCC 15126, 24 h), the “MIC, C. glabrata ATCC 15126” value amounted to 128 µg/mL. Besides, in the test on S. aureus ATCC 25923 (ATCC 25923, 18 h), the “MIC, S. aureus ATCC 25923” value amounted to 16 µg/mL. Besides, in test [1] (ATCC 700603, 18 h), the “MIC, K. pneumoniae ATCC 700603” value is 16 µg/mL. In addition, in the test with E. faecalis PCM 2673 (PCM 2673, 18 h), the “MIC, E. faecalis PCM 2673” value worked out at 32 µg/mL. Moreover, the “MIC, E. coli ATCC 23506” value in the test on E. coli ATCC 23506 (ATCC 23506, 18 h) worked out at 32 µg/mL.
